Data as given in PubChem BioAssay (NCI).
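Step 1: Grow cells in 96-well plates. Step 2: Expose to compound for 48 hours at 5 concentrations. Step 3: Interpolate endpoints linearly; if unreached, use highest concentration. TGI denotes the concentration required for complete inhibition of growth.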

Experiments:
Experiment in all cases: growth of human tumour cells (NCI), 48 h
CCRF-CEM leukemia = test system: CCRF-CEM leukemia
TK-10 renal = test system: TK-10 renal
MOLT-4 leukemia = test system: MOLT-4 leukemia
U251 CNS = test system: U251 CNS
786-0 renal = test system: 786-0 renal
T-47D breast = test system: T-47D breast
SF-539 CNS = test system: SF-539 CNS
LOX IMVI melanoma = test system: LOX IMVI melanoma
MDA-N = test system: MDA-N
MCF7 breast = test system: MCF7 breast
RPMI-8226 leukemia = test system: RPMI-8226 leukemia
SK-MEL-2 melanoma = test system: SK-MEL-2 melanoma
SR leukemia = test system: SR leukemia
IGROV1 ovarian = test system: IGROV1 ovarian
K-562 leukemia = test system: K-562 leukemia
SK-MEL-5 melanoma = test system: SK-MEL-5 melanoma
OVCAR-4 ovarian = test system: OVCAR-4 ovarian
HT29 colon = test system: HT29 colon
UACC-62 melanoma = test system: UACC-62 melanoma
RXF 393 renal = test system: RXF 393 renal
EKVX NSCLC = test system: EKVX NSCLC
HL-60(TB) leukemia = test system: HL-60(TB) leukemia
MALME-3M melanoma = test system: MALME-3M melanoma
A549 NSCLC = test system: A549 NSCLC
HOP-62 NSCLC = test system: HOP-62 NSCLC
DU-145 prostate = test system: DU-145 prostate
UACC-257 melanoma = test system: UACC-257 melanoma
SK-MEL-28 melanoma = test system: SK-MEL-28 melanoma
NCI-H460 lung = test system: NCI-H460 lung
SF-295 CNS = test system: SF-295 CNS
SW-620 colon = test system: SW-620 colon
OVCAR-5 ovarian = test system: OVCAR-5 ovarian
SNB-19 CNS = test system: SNB-19 CNS
HS 578T breast = test system: HS 578T breast
HCC-2998 colon = test system: HCC-2998 colon
OVCAR-3 ovarian = test system: OVCAR-3 ovarian
COLO 205 colon = test system: COLO 205 colon
HCT-116 colon = test system: HCT-116 colon
NCI-H522 lung = test system: NCI-H522 lung
NCI-H226 lung = test system: NCI-H226 lung
NCI-H23 lung = test system: NCI-H23 lung
MDA-MB-231 breast = test system: MDA-MB-231 breast
MDA-MB-435 = test system: MDA-MB-435
ACHN renal = test system: ACHN renal
UO-31 renal = test system: UO-31 renal
SN12C renal = test system: SN12C renal
SK-OV-3 ovarian = test system: SK-OV-3 ovarian
CAKI-1 renal = test system: CAKI-1 renal
BT-549 breast = test system: BT-549 breast
PC-3 prostate = test system: PC-3 prostate
HCT-15 colon = test system: HCT-15 colon
M14 melanoma = test system: M14 melanoma
KM12 colon = test system: KM12 colon
OVCAR-8 ovarian = test system: OVCAR-8 ovarian
SF-268 CNS = test system: SF-268 CNS
A498 renal = test system: A498 renal
SNB-75 CNS = test system: SNB-75 CNS
HOP-92 NSCLC = test system: HOP-92 NSCLC

SMILES: COC(=O)[C@@H]1C[C@H]2OC(=O)CC[C@]2(C)O[C@H]1[C@H]1O[C@@](C)(O)CCC[C@H]1C
- TGI (CCRF-CEM leukemia): 39.3 µM
- TGI (TK-10 renal): > 50 µM
- TGI (MOLT-4 leukemia): > 50 µM
- TGI (U251 CNS): > 50 µM
- TGI (786-0 renal): > 50 µM
- TGI (T-47D breast): > 50 µM
- TGI (SF-539 CNS): > 50 µM
- TGI (LOX IMVI melanoma): > 50 µM
- TGI (MDA-N): > 50 µM
- TGI (MCF7 breast): > 50 µM
- TGI (RPMI-8226 leukemia): > 50 µM
- TGI (SK-MEL-2 melanoma): > 50 µM
- TGI (SR leukemia): > 50 µM
- TGI (IGROV1 ovarian): > 50 µM
- TGI (K-562 leukemia): > 50 µM
- TGI (SK-MEL-5 melanoma): > 50 µM
- TGI (OVCAR-4 ovarian): > 50 µM
- TGI (HT29 colon): > 50 µM
- TGI (UACC-62 melanoma): > 50 µM
- TGI (RXF 393 renal): > 50 µM
- TGI (EKVX NSCLC): > 50 µM
- TGI (HL-60(TB) leukemia): 30.6 µM
- TGI (MALME-3M melanoma): > 50 µM
- TGI (A549 NSCLC): > 50 µM
- TGI (HOP-62 NSCLC): > 50 µM
- TGI (DU-145 prostate): > 50 µM
- TGI (UACC-257 melanoma): > 50 µM
- TGI (SK-MEL-28 melanoma): > 50 µM
- TGI (NCI-H460 lung): > 50 µM
- TGI (SF-295 CNS): > 50 µM
- TGI (SW-620 colon): > 50 µM
- TGI (OVCAR-5 ovarian): > 50 µM
- TGI (SNB-19 CNS): > 50 µM
- TGI (HS 578T breast): > 50 µM
- TGI (HCC-2998 colon): > 50 µM
- TGI (OVCAR-3 ovarian): > 50 µM
- TGI (COLO 205 colon): > 50 µM
- TGI (HCT-116 colon): > 50 µM
- TGI (NCI-H522 lung): > 50 µM
- TGI (NCI-H226 lung): > 50 µM
- TGI (NCI-H23 lung): > 50 µM
- TGI (MDA-MB-231 breast): > 50 µM
- TGI (MDA-MB-435): > 50 µM
- TGI (ACHN renal): > 50 µM
- TGI (UO-31 renal): > 50 µM
- TGI (SN12C renal): > 50 µM
- TGI (SK-OV-3 ovarian): > 50 µM
- TGI (CAKI-1 renal): > 50 µM
- TGI (BT-549 breast): > 50 µM
- TGI (PC-3 prostate): > 50 µM
- TGI (HCT-15 colon): > 50 µM
- TGI (M14 melanoma): > 50 µM
- TGI (KM12 colon): > 50 µM
- TGI (OVCAR-8 ovarian): > 50 µM
- TGI (SF-268 CNS): > 50 µM

SMILES: C=C(C)C1CCC(C(=O)O)CC1 (stereo not given)
- TGI (CCRF-CEM leukemia): > 100 µM
- TGI (TK-10 renal): > 100 µM
- TGI (MOLT-4 leukemia): > 100 µM
- TGI (U251 CNS): > 100 µM
- TGI (786-0 renal): > 100 µM
- TGI (T-47D breast): > 100 µM
- TGI (SF-539 CNS): > 100 µM
- TGI (LOX IMVI melanoma): > 100 µM
- TGI (MDA-N): > 100 µM
- TGI (A498 renal): > 100 µM
- TGI (MCF7 breast): > 100 µM
- TGI (RPMI-8226 leukemia): > 100 µM
- TGI (SK-MEL-2 melanoma): > 100 µM
- TGI (IGROV1 ovarian): > 100 µM
- TGI (K-562 leukemia): > 100 µM
- TGI (SNB-75 CNS): > 100 µM
- TGI (SK-MEL-5 melanoma): > 100 µM
- TGI (HT29 colon): > 100 µM
- TGI (UACC-62 melanoma): > 100 µM
- TGI (RXF 393 renal): > 100 µM
- TGI (EKVX NSCLC): > 100 µM
- TGI (MALME-3M melanoma): > 100 µM
- TGI (A549 NSCLC): > 100 µM
- TGI (HOP-62 NSCLC): > 100 µM
- TGI (DU-145 prostate): > 100 µM
- TGI (UACC-257 melanoma): > 100 µM
- TGI (SK-MEL-28 melanoma): > 100 µM
- TGI (NCI-H460 lung): > 100 µM
- TGI (SF-295 CNS): > 100 µM
- TGI (HOP-92 NSCLC): > 100 µM
- TGI (SW-620 colon): > 100 µM
- TGI (OVCAR-5 ovarian): > 100 µM
- TGI (SNB-19 CNS): > 100 µM
- TGI (HS 578T breast): > 100 µM
- TGI (HCC-2998 colon): > 100 µM
- TGI (OVCAR-3 ovarian): > 100 µM
- TGI (COLO 205 colon): > 100 µM
- TGI (HCT-116 colon): > 100 µM
- TGI (NCI-H522 lung): > 100 µM
- TGI (NCI-H226 lung): > 100 µM
- TGI (NCI-H23 lung): > 100 µM
- TGI (MDA-MB-231 breast): > 100 µM
- TGI (MDA-MB-435): > 100 µM
- TGI (ACHN renal): > 100 µM
- TGI (UO-31 renal): > 100 µM
- TGI (SN12C renal): > 100 µM
- TGI (SK-OV-3 ovarian): > 100 µM
- TGI (CAKI-1 renal): > 100 µM
- TGI (BT-549 breast): > 100 µM
- TGI (PC-3 prostate): > 100 µM
- TGI (HCT-15 colon): > 100 µM
- TGI (M14 melanoma): > 100 µM
- TGI (KM12 colon): > 100 µM
- TGI (OVCAR-8 ovarian): > 100 µM
- TGI (SF-268 CNS): > 100 µM
